Peptide text beside a SMILES is read from it.
Assays:
ATP7B MBD3-4 = molecular target: T1, ATP7B MBD3-4 (Homo sapiens, UniProt P35670); assay: Microscale thermophoresis (MST) binding to MBD3-4; settings: for Kd: in the presence of Cu(I) (40 µM), protein 50 nM
T1 construct: […]; made in house; host or cells: E. coli Origami 2
T1 sequence (P35670 234-439): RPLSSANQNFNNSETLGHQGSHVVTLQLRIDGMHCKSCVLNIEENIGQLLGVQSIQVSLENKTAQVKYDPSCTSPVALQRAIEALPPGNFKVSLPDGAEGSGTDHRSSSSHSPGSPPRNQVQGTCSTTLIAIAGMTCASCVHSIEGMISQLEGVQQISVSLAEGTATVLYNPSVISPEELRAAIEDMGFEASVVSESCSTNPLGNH
Protocol: To better understand the EPR and CD experiments, MST binding experiments were performed. MST is a physical phenomenon whereby biomolecules migrate along a temperature gradient according to their size, hydrodynamic radius, charge, and hydration shell. The target biomolecule is fluorescently labeled and monitored over the course of the experiment. An infra-red laser is used to create a temperature gradient for a given time. Since binding interactions can alter the properties listed above, a binding curve can be created with a ligand titration series. Fixed amounts of labelled MBD3-4 or Atox1 were incubated with increasing concentrations of SMD or KER peptides, in the presence or absence of Cu(I) (Figure 3). […] The measured KD values of the SMD peptide were in the tens of µM range for both Atox1 (39 ± 3 μM) and MBD3-4 (45 ± 4 μM), whereas KER peptide preferentially interacted with Atox1 (20 ± 2 μM). The KD for the interaction with MBD3-4 was slightly higher (36 ± 3 μM).
The labelling was performed with reactive dyes using N-hydroxysuccinimide (NHS)–ester chemistry. The protein concentration was adjusted to 20 μM using HEPES buffer. Briefly, the solid fluorescent dye was dissolved in DMSO at a concentration of about 1.3 mM and mixed thoroughly. Before mixing the protein and dye, the concentration of the dye was adjusted to twice that of the protein using HEPES buffer. Then, the protein and fluorescent dye solutions were mixed at a 1:1 ratio and incubated for 30 min at room temperature in the dark. […] Purity was monitored by measuring the ratio of protein to dye (spectroscopically, for example, by measuring absorption at 280 nm for protein and 650 nm for the dye; molar absorbance: 250,000 M^−1 cm^−1) after the clean-up procedure.
(§1) MBD3-4 and Atox1 were labeled on lysine residues with red fluorescent NT-647-NHS using the NanoTemper labeling kit. […] Normalized fluorescence was detected at a ratio of [Fnorm = Fhot/Finitial]. Fluorescence was measured before IR-laser heating (Finitial) and after a specific IR-laser heating (Fhot) time. […]

HepG2 liver cancer cells = assay: Cell toxicity (MTT assay), HepG2; format: cell-based; settings: copper ions alone, absence of peptides, read-out: LC50 (the source's name)
Protocol: (§2) HEK293 and MCF7 cells were cultured in Dulbecco’s modified Eagle’s medium (DMEM) high glucose medium, with fetal bovine serum (10%), L-glutamine (1%), and PSNS antibiotic (1%). The HepG2 cell line was cultured in Eagle’s minimum essential medium (EMEM), with fetal bovine serum (10%), L-glutamine (1%) and PSNS antibiotic (1%). The THLE-3 cell line was cultured in BGEM medium according to manufacturer’s instructions. All cell line types were cultured at 37°C with 5% CO2. The culture media was changed every 2 days. At 80% confluence, the cells were harvested using 0.25% trypsin and sub-cultured into 75 cm^2 flasks, 24-well plates, or 96-well plates, according to the experiment. The cells were then treated with a range of peptide concentrations suspended in medium without serum for 24 h. After the 24 h treatment, the various toxicity end points were evaluated in the control and peptide-exposed cells.
(§3) Peptides were introduced at various concentrations (three triplicates per concentration) ranging from 0 to 1 mM and incubated with the different cell lines (HEK293/MCF7/HepG2/THLE-3) for 24 h at 37°C. […] Lysates were transferred to 96-well plates and absorption values were collected using a Synergy plate reader at 570 nm wavelength. […] The absorption of the control (without peptide) was determined at 100%; all peptide concentrations were compared to the control sample. […]

MCF7 breast cancer cells = assay: Cell toxicity (MTT assay), MCF7; format: cell-based; settings: copper ions alone, absence of peptides, read-out: LC50 (the source's name)
Protocol: as §2, §3

[1] = tested on: HEK293 human kidney cells; assay: Cell toxicity (MTT assay), HEK293; format: cell-based; settings: copper ions alone, absence of peptides, read-out: LC50 (the source's name)
Protocol: as §2, §3

Atox1 = molecular target: T2, Atox1 (Homo sapiens, UniProt O00244); assay: Microscale thermophoresis (MST) binding to Atox1; settings: neither in the presence nor in the absence of Cu(I)
T2 construct: made in house; host or cells: E. coli Origami 2 (as for ATP7B MBD3-4)
T2 sequence (O00244 1-68): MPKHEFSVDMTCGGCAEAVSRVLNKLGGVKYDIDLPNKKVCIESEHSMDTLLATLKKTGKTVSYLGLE
Protocol: To better understand the EPR and CD experiments, MST binding experiments were performed. MST is a physical phenomenon whereby biomolecules migrate along a temperature gradient according to their size, hydrodynamic radius, charge, and hydration shell. The target biomolecule is fluorescently labeled and monitored over the course of the experiment. An infra-red laser is used to create a temperature gradient for a given time. Since binding interactions can alter the properties listed above, a binding curve can be created with a ligand titration series. Fixed amounts of labelled MBD3-4 or Atox1 were incubated with increasing concentrations of SMD or KER peptides, in the presence or absence of Cu(I) (Figure 3). […]
The labelling was performed with reactive dyes using N-hydroxysuccinimide (NHS)–ester chemistry. […] Purity was monitored by measuring the ratio of protein to dye (spectroscopically, for example, by measuring absorption at 280 nm for protein and 650 nm for the dye; molar absorbance: 250,000 M^−1 cm^−1) after the clean-up procedure.
as §1

[2] = molecular target: ATP7B MBD3-4, fluorescently labelled (NT-647-NHS); assay: MST; with Cu(I) 40 uM; labelled protein 50 nM, peptide titrated; 25 mM Na2HPO4 pH 8, 150 mM NaCl, 0.05% Tween 20; 25 C; Monolith NT.115
[3] = molecular target: ATP7B MBD3-4, fluorescently labelled (NT-647-NHS)
[4] = molecular target: T3, Atox1, fluorescently labelled (NT-647-NHS) (UniProt O00244 1-68, red fluorescent NT-647-NHS on lysine residues); assay: MST; with Cu(I) 40 uM; labelled protein 50 nM, peptide titrated; 25 mM Na2HPO4 pH 8, 150 mM NaCl, 0.05% Tween 20; 25 C; Monolith NT.115; settings: both partners purified
T3 construct: Atox1 copper metallochaperone; also called metallochaperone Atox1; source: E. coli Origami 2, purified as for ATP7B MBD3-4 (chitin beads, intein self-cleaved with DTT)
T3 sequence (looked up): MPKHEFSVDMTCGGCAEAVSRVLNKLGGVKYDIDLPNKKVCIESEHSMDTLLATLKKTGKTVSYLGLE

[5] = molecular target: T3, Atox1, fluorescently labelled …; assay: cell-based or functional assay

Sequence of ATP7B MBD3-4, fluorescently labelled (NT-647-NHS) (P35670 whole entry): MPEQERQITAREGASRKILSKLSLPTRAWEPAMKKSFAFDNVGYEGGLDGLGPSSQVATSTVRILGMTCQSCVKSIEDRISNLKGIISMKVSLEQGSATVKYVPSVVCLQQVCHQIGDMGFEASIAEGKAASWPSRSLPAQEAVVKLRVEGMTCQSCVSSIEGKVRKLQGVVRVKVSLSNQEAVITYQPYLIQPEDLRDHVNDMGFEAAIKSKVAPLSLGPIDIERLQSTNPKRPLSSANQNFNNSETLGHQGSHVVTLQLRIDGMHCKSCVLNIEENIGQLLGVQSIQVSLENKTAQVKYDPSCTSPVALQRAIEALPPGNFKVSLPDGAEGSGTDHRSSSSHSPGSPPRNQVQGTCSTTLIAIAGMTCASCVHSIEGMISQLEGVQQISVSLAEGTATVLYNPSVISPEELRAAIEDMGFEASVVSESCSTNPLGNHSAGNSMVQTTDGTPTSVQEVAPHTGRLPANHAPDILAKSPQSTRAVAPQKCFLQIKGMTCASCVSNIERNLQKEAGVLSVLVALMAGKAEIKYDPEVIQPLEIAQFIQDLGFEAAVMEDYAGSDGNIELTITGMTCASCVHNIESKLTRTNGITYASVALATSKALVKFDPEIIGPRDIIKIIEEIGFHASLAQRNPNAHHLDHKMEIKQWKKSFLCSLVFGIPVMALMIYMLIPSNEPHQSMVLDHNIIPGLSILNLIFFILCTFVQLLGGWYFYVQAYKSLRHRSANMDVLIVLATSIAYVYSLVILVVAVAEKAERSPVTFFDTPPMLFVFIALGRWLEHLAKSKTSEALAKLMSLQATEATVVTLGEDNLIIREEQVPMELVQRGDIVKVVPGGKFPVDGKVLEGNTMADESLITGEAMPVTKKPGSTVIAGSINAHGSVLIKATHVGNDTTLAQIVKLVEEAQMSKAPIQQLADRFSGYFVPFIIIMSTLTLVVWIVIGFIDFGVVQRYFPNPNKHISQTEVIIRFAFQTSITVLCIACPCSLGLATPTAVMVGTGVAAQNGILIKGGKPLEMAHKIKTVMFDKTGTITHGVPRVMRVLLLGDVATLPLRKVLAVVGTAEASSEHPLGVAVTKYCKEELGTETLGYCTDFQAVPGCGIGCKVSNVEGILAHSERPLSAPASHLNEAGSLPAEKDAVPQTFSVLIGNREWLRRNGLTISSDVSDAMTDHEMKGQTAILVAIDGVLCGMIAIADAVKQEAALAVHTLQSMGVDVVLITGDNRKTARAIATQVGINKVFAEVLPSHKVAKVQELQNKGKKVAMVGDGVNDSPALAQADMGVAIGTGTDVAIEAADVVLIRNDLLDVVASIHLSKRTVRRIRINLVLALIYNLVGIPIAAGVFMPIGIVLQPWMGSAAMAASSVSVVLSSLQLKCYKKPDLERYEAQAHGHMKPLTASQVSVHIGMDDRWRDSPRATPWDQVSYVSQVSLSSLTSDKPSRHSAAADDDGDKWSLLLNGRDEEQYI

`CC[C@H](C)[C@H](NC(=O)[C@H](CO)NC(=O)[C@H](CCSC)NC(=O)[C@H](CC(=O)O)NC(=O)[C@H](CCSC)NC(=O)[C@@H](N)CO)C(=O)N[C@@H](CCC(=O)O)C(N)=O` [SMD, SMDMSIE] (H-SMDMSIE-NH2) was tested, and the Kd (ATP7B MBD3-4) was 45 ± 4 µM.

`C[C@@H](O)[C@H](NC(=O)[C@H](CCCNC(=N)N)NC(=O)[C@H](CCC(=O)O)NC(=O)[C@@H](N)CCCCN)C(=O)N[C@@H](CO)C(=O)N[C@@H](CCCNC(=N)N)C(N)=O` [KER, KERTSR] (H-KERTSR-NH2) was tested, and the Kd (ATP7B MBD3-4) was 36 ± 3 µM.

`[Cu+]` [Cu(I)] gave a CC50 (HepG2 liver cancer cells) of 170 µM, a CC50 (MCF7 breast cancer cells) of 165 µM and a CC50 [1] of 150 µM.

With `[Cu+2]` [Cu(II)] the CC50 (HepG2 liver cancer cells) was 205 µM, the CC50 (MCF7 breast cancer cells) was 180 µM and the CC50 [1] was 196 µM.

GAGAAA [Ala] was tested, and the “Binding interaction with MBD3-4 (MST)” value (ATP7B MBD3-4; neither in the presence nor in the absence of Cu(I)) was “No binding interaction was observed” and the “Binding interaction with Atox1 (MST)” value (Atox1) was “No binding interaction was observed”.

B1: SMD peptide (peptide)
peptide: SMDMSIE
notes: Made on rink-amide resin, which would give a C-terminal amide; also called SMDMSIE; source: synthetic peptide (Fmoc, rink-amide resin, reverse phase HPLC; 95.1% purity)
For B1, the Kd [2] was 45 µM, the intracellular 64Cu content of MCF7 cells 4 h after 64Cu(II) injection, with peptide against without [3] was 5 fold and the Kd [4] was 39 ± 3 µM. The “intracellular 64Cu content of MCF7 cells 4 h after 64Cu(II) injection, with peptide against without” value [5] was 5 fold.

B2: KER peptide (peptide)
peptide: KERTSR
notes: Made on rink-amide resin, which would give a C-terminal amide; also called KERTSR; source: synthetic peptide (Fmoc, rink-amide resin, reverse phase HPLC; 99.4% purity)
B2 was tested, and the Kd [2] was 36 µM, the intracellular 64Cu content of MCF7 cells 4 h after 64Cu(II) injection, with peptide against without [3] was 3 fold and the Kd [4] was 20 ± 2 µM. The “intracellular 64Cu content of MCF7 cells 4 h after 64Cu(II) injection, with peptide against without” value [5] was 3 fold.

— PMC9589254, “Disrupting Cu trafficking as a potential therapy for cancer” (Frontiers in Molecular Biosciences, 2022)
